Tested on: adult subjects with TRD
Experiment: Phase 2b trial in TRD: safety, treatment emergent adverse events
Format: in vivo, human
Source text: Another objective was to evaluate the safety and tolerability of psilocybin in subjects with TRD based on AEs, changes in vital signs, and suicidal ideation/behaviour (measured using the Columbia-Suicide Severity Rating Scale [C-SSRS]) score at all visits.
Throughout the course of the study, all adverse events (AEs) were monitored and recorded and included the AE's description, start and end date, seriousness, severity, action taken, and relationship to the treatment. If AEs occurred, the first concern was the safety of the study subjects.
An AE can therefore be any unfavorable and unintended sign (including an abnormal laboratory finding, for example), symptom, or disease temporally associated with the use of a medicinal product, whether considered related to the medicinal product.
AEs were coded by Preferred Term (PT) using the Medical Dictionary for Regulatory Activities (MedDRA) classification. All reported AEs with onset or worsening after the administration of study medication were included in the analysis. The incidence of AEs was summarized by treatment group, and by severity and relationship to psilocybin. Serious AEs and AEs leading to withdrawal from the study will be tabulated.
A TEAE is defined as any AE that has an onset on or after the dose of psilocybin, or any pre-existing condition that has worsened on or after the dose of psilocybin.
The incidence of TEAEs and treatment-related AEs were summarized by maximum severity and most-related relationship to psilocybin by MedDRA primary system organ class and PT. The summary included the total number and percentage of subjects reporting an event.

CN(C)CCc1c[nH]c2cccc(OP(=O)(O)O)c12 [COMP360, psilocybin]
Any TESAE, participants (1 mg (N = 79)): 1 (1.3) n (%) | TEAE Abdominal pain upper, participants (1 mg (N = 79)): 1 (1.3) n (%) | TEAE Anxiety, participants (1 mg (N = 79)): 3 (3.8) n (%) | TEAE Back pain, participants (1 mg (N = 79)): 3 (3.8) n (%) | TEAE Depressed mood, participants (1 mg (N = 79)): 4 (5.1) n (%) | TEAE Depression, participants (1 mg (N = 79)): 5 (6.3) n (%) | TEAE Dizziness, participants (1 mg (N = 79)): 1 (1.3) n (%) | TEAE Euphoric mood, participants (1 mg (N = 79)): 4 (5.1) n (%) | TEAE Fatigue, participants (1 mg (N = 79)): 7 (8.9) n (%) | TEAE Headache, participants (1 mg (N = 79)): 20 (25.3) n (%) | TEAE Insomnia, participants (1 mg (N = 79)): 14 (17.7) n (%) | TEAE Irritability, participants (1 mg (N = 79)): 1 (1.3) n (%) | TEAE Mood altered, participants (1 mg (N = 79)): 1 (1.3) n (%) | TEAE Myalgia, participants (1 mg (N = 79)): 1 (1.3) n (%) | TEAE Nausea, participants (1 mg (N = 79)): 4 (5.1) n (%) | TEAE Panic reaction, participants (1 mg (N = 79)): 1 (1.3) n (%) | TEAE Paraesthesia, participants (1 mg (N = 79)): 1 (1.3) n (%) | TEAE Suicidal ideation, participants (1 mg (N = 79)): 4 (5.1) n (%) | TEAE Thinking abnormal, participants (1 mg (N = 79)): 0 n (%) | TESAE Adjustment disorder with anxiety, participants (1 mg (N = 79)): 0 n (%) | TESAE Adjustment disorder with mixed anxiety and depressed mood, participants (1 mg (N = 79)): 0 n (%) | TESAE Depression, participants (1 mg (N = 79)): 0 n (%) | TESAE Drug withdrawal syndrome*, participants (1 mg (N = 79)): 0 n (%) | TESAE Hospitalisation, participants (1 mg (N = 79)): 0 n (%) | TESAE Intentional self-injury, participants (1 mg (N = 79)): 1 (1.3) n (%) | TESAE Suicidal behaviour, participants (1 mg (N = 79)): 0 n (%) | TESAE Suicidal ideation, participants (1 mg (N = 79)): 0 n (%) | Patients with TEAEs of suicidal ideation, suicidal behaviour and intentional self-injury (1 mg group): four | Patients with TESAEs of suicidal ideation, suicidal behaviour and intentional self-injury (1 mg group): one | Any TESAE, participants (10 mg (N = 75)): 6 (8.0) n (%) | TEAE Abdominal pain upper, participants (10 mg (N = 75)): 2 (2.7) n (%) | TEAE Anxiety, participants (10 mg (N = 75)): 13 (17.3) n (%) | TEAE Back pain, participants (10 mg (N = 75)): 0 n (%) | TEAE Depressed mood, participants (10 mg (N = 75)): 5 (6.7) n (%) | TEAE Depression, participants (10 mg (N = 75)): 6 (8.0) n (%) | TEAE Dizziness, participants (10 mg (N = 75)): 1 (1.3) n (%) | TEAE Euphoric mood, participants (10 mg (N = 75)): 5 (6.7) n (%) | TEAE Fatigue, participants (10 mg (N = 75)): 5 (6.7) n (%) | TEAE Headache, participants (10 mg (N = 75)): 16 (21.3) n (%) | TEAE Insomnia, participants (10 mg (N = 75)): 11 (14.7) n (%) | TEAE Irritability, participants (10 mg (N = 75)): 2 (2.7) n (%) | TEAE Mood altered, participants (10 mg (N = 75)): 3 (4.0) n (%) | TEAE Myalgia, participants (10 mg (N = 75)): 2 (2.7) n (%) | TEAE Nausea, participants (10 mg (N = 75)): 7 (9.3) n (%) | TEAE Panic reaction, participants (10 mg (N = 75)): 1 (1.3) n (%) | TEAE Paraesthesia, participants (10 mg (N = 75)): 4 (5.3) n (%) | TEAE Suicidal ideation, participants (10 mg (N = 75)): 5 (6.7) n (%) | TEAE Thinking abnormal, participants (10 mg (N = 75)): 4 (5.3) n (%) | TESAE Adjustment disorder with anxiety, participants (10 mg (N = 75)): 0 n (%) | TESAE Adjustment disorder with mixed anxiety and depressed mood, participants (10 mg (N = 75)): 0 n (%) | TESAE Depression, participants (10 mg (N = 75)): 1 (1.3) n (%) | TESAE Drug withdrawal syndrome*, participants (10 mg (N = 75)): 0 n (%) | TESAE Hospitalisation, participants (10 mg (N = 75)): 1 (1.3) n (%) | TESAE Intentional self-injury, participants (10 mg (N = 75)): 2 (2.7) n (%) | TESAE Suicidal behaviour, participants (10 mg (N = 75)): 0 n (%) | TESAE Suicidal ideation, participants (10 mg (N = 75)): 2 (2.7) n (%) | Patients with TEAEs of suicidal ideation, suicidal behaviour and intentional self-injury (10 mg group): six | Patients with TESAEs of suicidal ideation, suicidal behaviour and intentional self-injury (10 mg group): four | Any TESAE, participants (25 mg (N = 79)): 5 (6.3) n (%) | TEAE Abdominal pain upper, participants (25 mg (N = 79)): 4 (5.1) n (%) | TEAE Anxiety, participants (25 mg (N = 79)): 7 (8.9) n (%) | TEAE Back pain, participants (25 mg (N = 79)): 6 (7.6) n (%) | TEAE Depressed mood, participants (25 mg (N = 79)): 3 (3.8) n (%) | TEAE Depression, participants (25 mg (N = 79)): 4 (5.1) n (%) | TEAE Dizziness, participants (25 mg (N = 79)): 6 (7.6) n (%) | TEAE Euphoric mood, participants (25 mg (N = 79)): 4 (5.1) n (%) | TEAE Fatigue, participants (25 mg (N = 79)): 12 (15.2) n (%) | TEAE Headache, participants (25 mg (N = 79)): 27 (34.2) n (%) | TEAE Insomnia, participants (25 mg (N = 79)): 8 (10.1) n (%) | TEAE Irritability, participants (25 mg (N = 79)): 4 (5.1) n (%) | TEAE Mood altered, participants (25 mg (N = 79)): 7 (8.9) n (%) | TEAE Myalgia, participants (25 mg (N = 79)): 5 (6.3) n (%) | TEAE Nausea, participants (25 mg (N = 79)): 18 (22.8) n (%) | TEAE Panic reaction, participants (25 mg (N = 79)): 4 (5.1) n (%) | TEAE Paraesthesia, participants (25 mg (N = 79)): 3 (3.8) n (%) | TEAE Suicidal ideation, participants (25 mg (N = 79)): 5 (6.3) n (%) | TEAE Thinking abnormal, participants (25 mg (N = 79)): 0 n (%) | TESAE Adjustment disorder with anxiety, participants (25 mg (N = 79)): 1 (1.3) n (%) | TESAE Adjustment disorder with mixed anxiety and depressed mood, participants (25 mg (N = 79)): 1 (1.3) n (%) | TESAE Depression, participants (25 mg (N = 79)): 0 n (%) | TESAE Drug withdrawal syndrome*, participants (25 mg (N = 79)): 1 (1.3) n (%) | TESAE Hospitalisation, participants (25 mg (N = 79)): 0 n (%) | TESAE Intentional self-injury, participants (25 mg (N = 79)): 2 (2.5) n (%) | TESAE Suicidal behaviour, participants (25 mg (N = 79)): 3 (3.8) n (%) | TESAE Suicidal ideation, participants (25 mg (N = 79)): 2 (2.5) n (%) | Patients with TEAEs of suicidal ideation, suicidal behaviour and intentional self-injury (25 mg group): seven | Patients with TESAEs of suicidal ideation, suicidal behaviour and intentional self-injury (25 mg group): four | MADRS item 10 (suicidality) scores post-administration, comparison of groups (25 mg, 10 mg, 1 mg groups, blinded remote rater): no difference between the three groups | Any TESAE, participants (Overall (N = 233)): 12 (5.2) n (%) | TEAE Abdominal pain upper, participants (Overall (N = 233)): 7 (3.0) n (%) | TEAE Anxiety, participants (Overall (N = 233)): 23 (9.9) n (%) | TEAE Back pain, participants (Overall (N = 233)): 9 (3.9) n (%) | TEAE Depressed mood, participants (Overall (N = 233)): 12 (5.2) n (%) | TEAE Depression, participants (Overall (N = 233)): 15 (6.4) n (%) | TEAE Dizziness, participants (Overall (N = 233)): 8 (3.4) n (%) | TEAE Euphoric mood, participants (Overall (N = 233)): 13 (5.6) n (%) | TEAE Fatigue, participants (Overall (N = 233)): 24 (10.3) n (%) | TEAE Headache, participants (Overall (N = 233)): 63 (27.0) n (%) | TEAE Insomnia, participants (Overall (N = 233)): 33 (14.2) n (%) | TEAE Irritability, participants (Overall (N = 233)): 7 (3.0) n (%) | TEAE Mood altered, participants (Overall (N = 233)): 11 (4.7) n (%) | TEAE Myalgia, participants (Overall (N = 233)): 8 (3.4) n (%) | TEAE Nausea, participants (Overall (N = 233)): 29 (12.4) n (%) | TEAE Panic reaction, participants (Overall (N = 233)): 6 (2.6) n (%) | TEAE Paraesthesia, participants (Overall (N = 233)): 8 (3.4) n (%) | TEAE Suicidal ideation, participants (Overall (N = 233)): 14 (6.0) n (%) | TEAE Thinking abnormal, participants (Overall (N = 233)): 4 (1.7) n (%) | TESAE Adjustment disorder with anxiety, participants (Overall (N = 233)): 1 (0.4) n (%) | TESAE Adjustment disorder with mixed anxiety and depressed mood, participants (Overall (N = 233)): 1 (0.4) n (%) | TESAE Depression, participants (Overall (N = 233)): 1 (0.4) n (%) | TESAE Drug withdrawal syndrome*, participants (Overall (N = 233)): 1 (0.4) n (%) | TESAE Hospitalisation, participants (Overall (N = 233)): 1 (0.4) n (%) | TESAE Intentional self-injury, participants (Overall (N = 233)): 5 (2.1) n (%) | TESAE Suicidal behaviour, participants (Overall (N = 233)): 3 (1.3) n (%) | TESAE Suicidal ideation, participants (Overall (N = 233)): 4 (1.7) n (%) | Patients with TEAEs of suicidal ideation, suicidal behaviour and intentional self-injury (all groups): 17 patients | Patients with TESAEs of suicidal ideation, suicidal behaviour and intentional self-injury (all groups): nine | TEAEs being mild or moderate in severity (all groups): more than 90% | TEAEs occurring on the day of administration that resolved on the same day or the day after (all groups): 77.4% | TEAEs of suicidal ideation, suicidal behaviour and intentional self-injury (all groups): 27 events | TESAEs of suicidal ideation, suicidal behaviour and intentional self-injury (all groups): 14 events | TESAEs of suicidality/self-injury that occurred at least one week after the session (all groups): 10 events out of 14 | Participants reported at least one TEAE (all groups (233 patients)): 179 participants | Timing of suicidal behaviours after the psilocybin therapy session (all patients reporting these events were non responders at event onset): occurred at least one month after the psilocybin therapy session | Tolerability (single dose 1, 10 or 25 mg): generally well tolerated | TEAEs involving hallucination (25 mg and 10 mg groups only) and illusion (all groups): onset and resolution (started on the day of administration): resolved on the same day
